Results from patent US20040224989A1, “S-lansoprazole compositions and methods” (priority 1999, published 2004).
Read-outs that look alike come from different tables or passages of the source.

Assays:
[1] = in humans; cited from earlier work
serum gastrin = settings: humans, on administration; cited from earlier work
[2] = system: hepatic drug metabolizing enzyme systems; settings: relative to omeprazole; cited from earlier work
gastric acid secretion = settings: in humans; cited from earlier work
CYP2D6 [3] = assay: metabolism by CYP2D6; settings: CYP2D6 is the polymorphically expressed enzyme
CYP3A4 = CYP3A4 (Homo sapiens, UniProt P08684); assay: metabolism by CYP3A4
stability at low pH = type: physicochemical
Text: The terms “pharmaceutically acceptable salts” or “a pharmaceutically acceptable salt thereof” refer to salts prepared from pharmaceutically acceptable non-toxic bases. […] Suitable pharmaceutically acceptable base addition salts for the compound of the present invention include metallic salts of aluminum, calcium, lithium, magnesium, potassium, sodium, titanium and zinc or organic salts made from lysine, N,N′-dibenzylethylenediamine, chloroprocaine, choline, diethanolamine, ethylenediamine, meglumine (N-methylglucamine) and procaine. If any salt is to be used, sodium salts are preferred.

[4] = pharmacokinetic and duration profile of the S(−) isomer; type: in vivo; settings: compared with racemic lansoprazole
Text: Syndrome, psoriasis and other disorders, including those that would benefit from an inhibitory action on H^+, K^+-ATPase in that it provides this effective treatment while substantially reducing the adverse effects of racemic lansoprazole including, but not limited to, hepatocellular neoplasia, gastric carcinoids, headache, diarrhea and skin alterations.

canine parietal cells = settings: isolated canine parietal cells; (+) versus (−) enantiomer; Nagaya et al.; cited from earlier work
CYP2D6 [5] = system: CYP2D6

CYP3A4, sequence (P08684 whole entry): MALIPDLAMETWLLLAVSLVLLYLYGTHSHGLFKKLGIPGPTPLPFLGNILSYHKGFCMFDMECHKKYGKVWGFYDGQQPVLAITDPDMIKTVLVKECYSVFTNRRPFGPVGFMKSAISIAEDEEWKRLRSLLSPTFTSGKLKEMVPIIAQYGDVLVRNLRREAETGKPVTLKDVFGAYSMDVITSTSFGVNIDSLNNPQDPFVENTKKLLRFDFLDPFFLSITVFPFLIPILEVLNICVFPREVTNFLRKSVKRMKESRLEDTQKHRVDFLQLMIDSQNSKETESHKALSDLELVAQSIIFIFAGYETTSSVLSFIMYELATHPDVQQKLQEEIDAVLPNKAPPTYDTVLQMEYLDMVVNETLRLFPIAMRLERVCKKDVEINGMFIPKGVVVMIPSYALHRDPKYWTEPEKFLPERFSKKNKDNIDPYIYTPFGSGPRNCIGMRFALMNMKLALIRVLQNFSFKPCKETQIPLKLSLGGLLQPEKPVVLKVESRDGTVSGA

Compound	serum half-life [1]	fasting serum gastrin levels (serum gastrin)	effects on hepatic drug metabolizing enzyme systems [2]	duration of the acid inhibitory effect (gastric acid secretion)	metabolism by CYP2D6 (CYP2D6 [3])	metabolism by CYP3A4 (CYP3A4)	stability at low pH (stability at low pH)	AUC (area under the curve) [4]	duration [4]	first pass metabolism [4]	onset [4]	effect on acid formation stimulated by db-cAMP (canine parietal cells)	metabolism by CYP2D6 (CYP2D6 [5])
Cc1c(OCC(F)(F)F)ccnc1C[S+]([O-])c1nc2ccccc2[nH]1 (racemic) [racemic lansoprazole, 2-[3-methyl-4-(2,2,2-trifluoroethoxy)pyrid-2-yl]methylsulfinyl-benzimidazole]	about 1.5 hours	significantly elevated	comparable to omeprazole	about 24 hours									
Cc1c(OCC(F)(F)F)ccnc1C[S+]([O-])c1nc2ccccc2[nH]1 (single isomer, unassigned; (-)) [S(−) lansoprazole, (−) isomer of 2-[3-methyl-4-(2,2,2-trifluoroethoxy)pyrid-2-yl]methylsulfinyl-benzimidazole]					metabolized by both CYP2D6 and CYP3A4	metabolized by both CYP2D6 and CYP3A4	unstable at low pH	higher AUC	longer duration	lower first pass metabolism	more rapid onset	almost identical	
Cc1c(OCC(F)(F)F)ccnc1C[S@@+]([O-])c1nc2ccccc2[nH]1 [R(+) lansoprazole, reference compound]						metabolized only by CYP2D6						almost identical	metabolized only by CYP2D6
